Source: EP2272817A1, “PAI-1 INHIBITOR” (Institute of Medicinal Molecular Design, Inc., priority 2008, dated 2009)
Like-named read-outs stand apart in the source and are kept apart here.

Molecular target: recombinant human PAI-1 (Homo sapiens, UniProt P05121)
Assay: biochemical
[1] = read-out: Inhibition Rate of PAI-1 Activity (%)
[2] = read-out: Inhibition Rate of PAI Activity (%)
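Also: PAI-1 preincubated with compound, then two-chain tPA added, residual tPA activity read with fluorogenic Pyr-Gly-Arg-MCA substrate after 30 min at room temperature.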

Chain of recombinant human PAI-1 (P05121 24-402): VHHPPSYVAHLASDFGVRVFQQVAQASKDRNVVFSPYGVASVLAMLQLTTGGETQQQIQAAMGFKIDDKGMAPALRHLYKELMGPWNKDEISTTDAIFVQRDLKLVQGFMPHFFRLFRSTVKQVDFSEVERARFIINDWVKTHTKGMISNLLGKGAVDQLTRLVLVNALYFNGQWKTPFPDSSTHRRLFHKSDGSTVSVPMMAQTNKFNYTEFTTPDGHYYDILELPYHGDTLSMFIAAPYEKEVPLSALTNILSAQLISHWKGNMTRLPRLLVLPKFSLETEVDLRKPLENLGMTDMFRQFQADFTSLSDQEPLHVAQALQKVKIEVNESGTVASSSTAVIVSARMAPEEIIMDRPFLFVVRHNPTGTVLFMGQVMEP

CC(C)(C)c1ccc(COc2c(Cl)cc(-c3ccc(OC(F)(F)F)cc3)cc2/C=C/C(=O)O)cc1 [Compound 91]
inhibition at 5 µM [1]: 30% | inhibition at 10 µM [1]: 67% | inhibition at 25 µM [1]: 96%

O=C(O)CCc1cc(-c2ccc(OC(F)(F)F)cc2)ccc1OCc1ccc(OC(F)(F)F)cc1 [Compound 62]
inhibition at 5 µM [2]: 29% | inhibition at 10 µM [2]: 62% | inhibition at 25 µM [2]: 99%

CSc1ccc(CN(C(=O)C(=O)O)c2ccc(-c3ccc(OC(F)(F)F)cc3)cc2)cc1 [Compound 160]
inhibition at 5 µM [1]: 14% | inhibition at 10 µM [1]: 26% | inhibition at 25 µM [1]: 68%

CC(C)(C)c1ccc(COc2cccc(Oc3ccc(OC(F)(F)F)cc3)c2/C=C/C(=O)O)cc1 [Compound 85]
inhibition at 5 µM [1]: 40% | inhibition at 10 µM [1]: 61% | inhibition at 25 µM [1]: 85%

CC(C)(C)c1ccc(N(C(=O)C(=O)O)c2cccc(-c3ccc(OC(F)(F)F)cc3)c2)cc1 [Compound 158]
inhibition at 5 µM [1]: 26% | inhibition at 10 µM [1]: 61% | inhibition at 25 µM [1]: > 99%

O=C(O)C(=O)N(CCCCCc1ccccc1)c1ccc(-c2ccc(OC(F)(F)F)cc2)cc1 [Compound 228]
inhibition at 5 µM [1]: 45% | inhibition at 10 µM [1]: 71% | inhibition at 25 µM [1]: 95%

CC(OCC(=O)O)c1cc(-c2ccc(OC(F)(F)F)cc2)ccc1OCc1ccc(C(C)(C)C)cc1 (centres unmarked) [Compound 108]
inhibition at 5 µM [1]: 52% | inhibition at 10 µM [1]: 86% | inhibition at 25 µM [1]: 95%

CCCCCN(C(=O)C(=O)O)c1ccc(-c2ccc(OC(F)(F)F)cc2)cc1 [Compound 254]
inhibition at 5 µM [1]: 3% | inhibition at 10 µM [1]: 9% | inhibition at 25 µM [1]: 31%

O=C(O)C(=O)N(CCCCc1ccccc1)c1ccc(N2CCOCC2)c(-c2ccc(OC(F)(F)F)cc2)c1 [Compound 243]
inhibition at 5 µM [1]: 42% | inhibition at 10 µM [1]: 64% | inhibition at 25 µM [1]: 89%

CC(C)(C)c1ccc(CN(C(=O)C(=O)O)c2ccccc2Sc2ccc(OC(F)(F)F)cc2)cc1 [Compound 631]
inhibition at 5 µM [1]: 58% | inhibition at 10 µM [1]: 86% | inhibition at 25 µM [1]: 86%

CC(C)(Nc1cc(-c2ccc(OC(F)(F)F)cc2)ccc1OCc1ccc(C(C)(C)C)cc1)C(=O)O [Compound 420]
inhibition at 5 µM [1]: 42% | inhibition at 10 µM [1]: 64% | inhibition at 25 µM [1]: 83%

COc1ccc(-c2ccc(OC(F)(F)F)cc2)cc1N(Cc1ccc(C(C)(C)C)cc1)C(=O)C(=O)O [Compound 182]
inhibition at 5 µM [1]: 56% | inhibition at 10 µM [1]: 85% | inhibition at 25 µM [1]: 89%

CCCOc1ccc(-c2ccc(OC(F)(F)F)cc2)cc1N(CCCc1ccccc1)C(=O)C(=O)O [Compound 234]
inhibition at 5 µM [1]: 59% | inhibition at 10 µM [1]: 83% | inhibition at 25 µM [1]: 96%

CC(C)(C)Oc1ccc(N(Cc2ccc(C(C)(C)C)cc2)C(=O)C(=O)O)cc1-c1ccc(OC(F)(F)F)cc1 [Compound 218]
inhibition at 5 µM [1]: 83% | inhibition at 10 µM [1]: 78%

CC(C)(C)c1ccc(-c2ccc(N(Cc3ccccc3OC(F)(F)F)C(=O)C(=O)O)cc2)cc1 [Compound 202]
inhibition at 5 µM [1]: 70% | inhibition at 10 µM [1]: 94% | inhibition at 25 µM [1]: 98%

CC(C)(C)c1ccc(CN(C(=O)C(=O)O)c2cccc(OCc3ccc(OC(F)(F)F)cc3)c2)cc1 [Compound 619]
inhibition at 5 µM [1]: 48% | inhibition at 10 µM [1]: 83% | inhibition at 25 µM [1]: 92%

CC(C)(C)c1ccc(CN(C(=O)C(=O)O)c2ccccc2OCc2ccc(OC(F)(F)F)cc2)cc1 [Compound 620]
inhibition at 5 µM [1]: 41% | inhibition at 10 µM [1]: 77% | inhibition at 25 µM [1]: 95%

CC(C)(C)c1ccc(CN(C(=O)C(=O)O)c2cc(Oc3ccc(OC(F)(F)F)cc3)cc(C(F)(F)F)c2)cc1 [Compound 175]
inhibition at 5 µM [1]: 66% | inhibition at 10 µM [1]: 94% | inhibition at 25 µM [1]: 87%

O=C(O)CCc1cc(-c2ccc(OC(F)(F)F)cc2)ccc1OCCCCCc1ccccc1 [Compound 104]
inhibition at 5 µM [1]: 47% | inhibition at 10 µM [1]: 77% | inhibition at 25 µM [1]: 96%

CCCOc1ccc(-c2ccc(OC(F)(F)F)cc2)cc1N(CCCCc1ccccc1)C(=O)C(=O)O [Compound 236]
inhibition at 5 µM [1]: 61% | inhibition at 10 µM [1]: 86% | inhibition at 25 µM [1]: 95%

Cc1cc(C)cc(CN(C(=O)C(=O)O)c2ccc(-c3ccc(OC(F)(F)F)cc3)cc2)c1 [Compound 123]
inhibition at 5 µM [1]: 27% | inhibition at 10 µM [1]: 62%

CC(C)(C)c1ccc(-c2ccc(N(Cc3ccc(OC(F)(F)F)cc3)C(=O)C(=O)O)cc2)cc1 [Compound 162]
inhibition at 5 µM [1]: 30% | inhibition at 10 µM [1]: 74% | inhibition at 25 µM [1]: > 99%

CCCOc1ccc(N(CCCc2ccccc2)C(=O)C(=O)O)cc1-c1ccc(OC(F)(F)F)cc1 [Compound 229]
inhibition at 5 µM [1]: 48% | inhibition at 10 µM [1]: 80% | inhibition at 25 µM [1]: 94%

CC(C)(C)c1ccc(CN(C(=O)C(=O)O)c2ccc(-c3ccc(C(F)(F)F)cc3)cc2)cc1 [Compound 145]
inhibition at 5 µM [1]: 7% | inhibition at 10 µM [1]: 35% | inhibition at 25 µM [1]: 74%

CC(C)(C)c1ccc(COc2c(Cl)cc(-c3ccc(OC(F)(F)F)cc3)cc2CCC(=O)O)cc1 [Compound 92]
inhibition at 5 µM [1]: 25% | inhibition at 10 µM [1]: 63% | inhibition at 25 µM [1]: 97%

CC(C)(C)c1ccc(COc2ccc(OCc3ccc(OC(F)(F)F)cc3)cc2CCC(=O)O)cc1 [Compound 414]
inhibition at 5 µM [1]: 33% | inhibition at 10 µM [1]: 67% | inhibition at 25 µM [1]: 96%

Cc1cc(-c2ccc(OC(F)(F)F)cc2)cc(N(Cc2ccc(C(C)(C)C)cc2)C(=O)C(=O)O)c1 [Compound 178]
inhibition at 5 µM [1]: 56% | inhibition at 10 µM [1]: 88% | inhibition at 25 µM [1]: 88%

CC(C)(C)c1ccc(CN(C(=O)C(=O)O)c2ccc(-c3cccc([N+](=O)[O-])c3)cc2)cc1 [Compound 142]
inhibition at 10 µM [1]: 3% | inhibition at 25 µM [1]: 33%

CC(C)(C)c1ccc(CN(C(=O)C(=O)O)c2cc(-c3ccccc3)cc(C(F)(F)F)c2)cc1 [Compound 140]
inhibition at 5 µM [1]: 6% | inhibition at 10 µM [1]: 31% | inhibition at 25 µM [1]: 77%

O=C(O)C(=O)N(Cc1ccc(O)cc1)c1ccc(-c2ccc(OC(F)(F)F)cc2)cc1 [Compound 181]
inhibition at 5 µM [1]: 10% | inhibition at 10 µM [1]: 11% | inhibition at 25 µM [1]: 31%

Cc1cc(-c2ccc(OC(F)(F)F)cc2)cc(C)c1N(Cc1ccc(C(C)(C)C)cc1)C(=O)C(=O)O [Compound 152]
inhibition at 5 µM [1]: 41% | inhibition at 10 µM [1]: 88% | inhibition at 25 µM [1]: 93%

CCCCCOc1ccc(N(CCCCc2ccccc2)C(=O)C(=O)O)cc1-c1ccc(OC(F)(F)F)cc1 [Compound 244]
inhibition at 5 µM [1]: 71% | inhibition at 10 µM [1]: 91%

O=C(O)C(=O)N(Cc1ccc(OC(F)(F)F)cc1)c1ccc(-c2ccc(OC(F)(F)F)cc2)cc1 [Compound 159]
inhibition at 5 µM [1]: 21% | inhibition at 10 µM [1]: 45% | inhibition at 25 µM [1]: 92%

Cc1cc(-c2ccc(OC(F)(F)F)cc2)ccc1N(Cc1ccc(C(C)(C)C)cc1)C(=O)C(=O)O [Compound 146]
inhibition at 5 µM [1]: 33% | inhibition at 10 µM [1]: 73% | inhibition at 25 µM [1]: 90%

CC(C)(C)c1ccc(CN(C(=O)C(=O)O)c2ccc(-c3ccc(OC(F)(F)F)cc3)c(CCC(=O)O)c2)cc1 [Compound 196]
inhibition at 5 µM [1]: 18% | inhibition at 10 µM [1]: 35% | inhibition at 25 µM [1]: 64%

CC(C)(C)c1ccc(CN(C(=O)C(=O)O)c2ccccc2Oc2ccc(OC(F)(F)F)cc2)cc1 [Compound 153]
inhibition at 5 µM [1]: 20% | inhibition at 10 µM [1]: 54% | inhibition at 25 µM [1]: 93%
